Tests used:
rice = test: Test B flood test rice; format: in vivo, Oryza sativa
In short: (§1)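 Plants were grown to the 2-leaf stage before treatment with test chemical, then held in a greenhouse for twelve to sixteen days. Injury was visually rated against untreated controls on a 0–10 scale, where 0 is no effect and 10 is complete control.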

crabgrass = test: Test B pre/postemergence crabgrass; format: in vivo, Digitaria sanguinalis
In short: (§2)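 Response is a visual 0-to-10 score relative to untreated plants, where 0 means no effect and 10 means complete control, taken twelve to sixteen days after application. Treatments went onto soil at planting and onto foliage of 1- to 4-leaf plants, using a surfactant-containing non-phytotoxic solvent.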

rape = test: Test B pre/postemergence rape; format: in vivo, Brassica napus
In short: as §2

smallflower flatsedge = test: Test B flood test smallflower flatsedge; format: in vivo, Cyperus difformis
In short: as §1

corn = test: Test B pre/postemergence corn; format: in vivo, Zea mays
In short: as §2

bamyardgrass = test: Test B flood test barnyardgrass; format: in vivo, Echinochloa crus-galli
In short: as §1

bedstraw = test: Test B pre/postemergence bedstraw; format: in vivo, Galium aparine
In short: as §2

velvetleaf = test: Test B pre/postemergence velvetleaf; format: in vivo, Abutilon theophrasti
In short: as §2

duck salad = test: Test B flood test duck salad; format: in vivo, Heteranthera limosa
In short: as §1

sugar beet = test: Test B pre/postemergence sugar beet; format: in vivo, Beta vulgaris
In short: as §2

purple nutsedge = test: Test B pre/postemergence purple nutsedge; format: in vivo, Cyperus rotundus
In short: as §2

giant foxtail = test: Test B pre/postemergence giant foxtail; format: in vivo, Setaria faberii
In short: as §2

surinam grass = test: Test B pre/postemergence surinam grass; format: in vivo, Brachiaria decumbens
In short: as §2

wheat = test: Test B pre/postemergence wheat; format: in vivo, Triticum aestivum
In short: as §2

blackgrass = test: Test B pre/postemergence blackgrass; format: in vivo, Alopecurus myosuroides
In short: as §2

wild oat = test: Test B pre/postemergence wild oat; format: in vivo, Avena fatua
In short: as §2

[1] = Postemergence, Rate 62 g/ha, scale 0 to 10, 0 is no effect, 10 is complete control
[2] = Rate 31 g/ha, Postemergence section (flood test species), scale 0 to 10
[3] = Rate 125 g/ha, Postemergence section (flood test species), scale 0 to 10, 0 no effect, 10 complete control
[4] = flood test, listed under Postemergence, Rate 250 g/ha, scale 0 to 10, 0 no effect, 10 complete control
[5] = Postemergence, Rate 250 g/ha, scale 0 to 10, 0 no effect, 10 complete control
[6] = Preemergence, Rate 31 g/ha, visual rating, scale 0 to 10 (0 no effect, 10 complete control)
[7] = Preemergence, Rate 62 g/ha, scale 0 to 10, 0 is no effect, 10 is complete control
[8] = Preemergence, Rate 125 g/ha, scale 0 to 10 (0 no effect, 10 complete control)
[9] = Preemergence, Rate 250 g/ha, scale of 0 to 10 where 0 is no effect and 10 is complete control
[10] = Rate 31 g/ha, Postemergence, scale 0 to 10
[11] = Rate 125 g/ha, Postemergence, scale 0 to 10, 0 no effect, 10 complete control

Question: What does the source list for `CCN(C(=O)n1oc(=O)n(-c2ccc(F)cc2F)c1=O)C1CCCCC1` [Compound 23]?
Answer: Rice plant response rating (rice; [1]): 0; Rice plant response rating (rice; [2]): 0; Rice plant response rating (rice; [3]): 0; Rice plant response rating (rice; [4]): 0; Crabgrass plant response rating (crabgrass; [1]): 0; Crabgrass plant response rating (crabgrass; [5]): 6; Crabgrass plant response rating (crabgrass; [6]): 0; Plant response rating, Crabgrass (crabgrass; [7]): 3; Plant response rating, Crabgrass (crabgrass; [8]): 3; Plant response rating, Crabgrass (crabgrass; [9]): 3; Crabgrass plant response rating (crabgrass; [10]): 0; Crabgrass plant response rating (crabgrass; [11]): 1; Rape plant response rating (rape; [1]): 0; Rape plant response rating (rape; [5]): 0; Rape plant response rating (rape; [6]): 0; Plant response rating, Rape (rape; [7]): 0; Plant response rating, Rape (rape; [8]): 0; Plant response rating, Rape (rape; [9]): 0; Rape plant response rating (rape; [10]): 0; Rape plant response rating (rape; [11]): 0; S. Flatsedge plant response rating (smallflower flatsedge; [1]): 0; S. Flatsedge plant response rating (smallflower flatsedge; [3]): 0; S. Flatsedge plant response rating (smallflower flatsedge; [4]): 0; Corn plant response rating (corn; [1]): 0; Corn plant response rating (corn; [5]): 0; Corn plant response rating (corn; [6]): 0; Plant response rating, Corn (corn; [7]): 0; Plant response rating, Corn (corn; [8]): 0; Plant response rating, Corn (corn; [9]): 0; Corn plant response rating (corn; [10]): 0; Corn plant response rating (corn; [11]): 0; Barnyardgrass plant response rating (bamyardgrass; [1]): 0; Barnyardgrass plant response rating (bamyardgrass; [2]): 0; Barnyardgrass plant response rating (bamyardgrass; [3]): 0; Barnyardgrass plant response rating (bamyardgrass; [4]): 0; Bedstraw plant response rating (bedstraw; [1]): 0; Bedstraw plant response rating (bedstraw; [5]): 0; Bedstraw plant response rating (bedstraw; [6]): 0; Plant response rating, Bedstraw (bedstraw; [7]): 0; Plant response rating, Bedstraw (bedstraw; [8]): 0; Plant response rating, Bedstraw (bedstraw; [9]): 0; Bedstraw plant response rating (bedstraw; [10]): 0; Bedstraw plant response rating (bedstraw; [11]): 0; Velvetleaf plant response rating (velvetleaf; [1]): 0; Velvetleaf plant response rating (velvetleaf; [5]): 0; Velvetleaf plant response rating (velvetleaf; [6]): 0; Plant response rating, Velvetleaf (velvetleaf; [7]): 0; Plant response rating, Velvetleaf (velvetleaf; [8]): 0; Plant response rating, Velvetleaf (velvetleaf; [9]): 0; Velvetleaf plant response rating (velvetleaf; [11]): 0; Ducksalad plant response rating (duck salad; [1]): 0; Ducksalad plant response rating (duck salad; [2]): 0; Ducksalad plant response rating (duck salad; [3]): 0; Ducksalad plant response rating (duck salad; [4]): 0; Sugarbeets plant response rating (sugar beet; [1]): 0; Sugarbeets plant response rating (sugar beet; [5]): 0; Sugarbeets plant response rating (sugar beet; [6]): 0; Plant response rating, Sugarbeets (sugar beet; [7]): 0; Plant response rating, Sugarbeets (sugar beet; [8]): 0; Plant response rating, Sugarbeets (sugar beet; [9]): 0; Sugarbeets plant response rating (sugar beet; [11]): 0; Nutsedge plant response rating (purple nutsedge; [1]): 0; Nutsedge plant response rating (purple nutsedge; [5]): 0; Nutsedge plant response rating (purple nutsedge; [6]): 0; Plant response rating, Nutsedge (purple nutsedge; [7]): 0; Plant response rating, Nutsedge (purple nutsedge; [8]): 0; Plant response rating, Nutsedge (purple nutsedge; [9]): 0; Nutsedge plant response rating (purple nutsedge; [10]): 0; Nutsedge plant response rating (purple nutsedge; [11]): 0; Giant foxtail plant response rating (giant foxtail; [1]): 0; Giant foxtail plant response rating (giant foxtail; [5]): 2; Giant foxtail plant response rating (giant foxtail; [6]): 1; Plant response rating, Giant foxtail (giant foxtail; [7]): 2; Plant response rating, Giant foxtail (giant foxtail; [8]): 2; Plant response rating, Giant foxtail (giant foxtail; [9]): 3; Giant foxtail plant response rating (giant foxtail; [10]): 0; Giant foxtail plant response rating (giant foxtail; [11]): 2; B. signalgrass plant response rating (surinam grass; [1]): 0; B. signalgrass plant response rating (surinam grass; [5]): 0; B. signalgrass plant response rating (surinam grass; [6]): 0; Plant response rating, B. signalgrass (surinam grass; [7]): 0; Plant response rating, B. signalgrass (surinam grass; [8]): 0; Plant response rating, B. signalgrass (surinam grass; [9]): 0; B. signalgrass plant response rating (surinam grass; [10]): 0; B. signalgrass plant response rating (surinam grass; [11]): 0; Wheat plant response rating (wheat; [1]): 0; Wheat plant response rating (wheat; [5]): 0; Wheat plant response rating (wheat; [6]): 0; Plant response rating, Wheat (wheat; [7]): 0; Plant response rating, Wheat (wheat; [8]): 0; Plant response rating, Wheat (wheat; [9]): 0; Wheat plant response rating (wheat; [11]): 0; Blackgrass plant response rating (blackgrass; [1]): 0; Blackgrass plant response rating (blackgrass; [5]): 0; Blackgrass plant response rating (blackgrass; [6]): 0; Plant response rating, Blackgrass (blackgrass; [7]): 0; Plant response rating, Blackgrass (blackgrass; [8]): 1; Plant response rating, Blackgrass (blackgrass; [9]): 2; Blackgrass plant response rating (blackgrass; [10]): 0; Blackgrass plant response rating (blackgrass; [11]): 0; Wild oats plant response rating (wild oat; [1]): 0; Wild oats plant response rating (wild oat; [5]): 0; Wild oats plant response rating (wild oat; [6]): 0; Plant response rating, Wild oats (wild oat; [8]): 0; Plant response rating, Wild oats (wild oat; [9]): 0; Wild oats plant response rating (wild oat; [11]): 0

Source: patent US6737383B1, “Herbicidal oxadiazolidines” (priority 1999, dated 2004)
